Test results reported in patent US6084072A, “Purified lectin and methods of use” (The Regents of the University of Michigan, priority 1993, dated 2000).
“And” between values parts separate entries of the source, which are not always exact repeats. Equal entries are not always repeated.

How the values were obtained:
colonic adenocarcinoma = assay type: binding, human; design: key to Labeling of transitional mucosa: 4^+: Maximum labeling of the brown reaction product; 0: No staining of the slide compared to control sections; 1^+: trace or weak staining definitely not seen on control slides; 2+3^+: stronger staining, but definitely less than maximal
[1] = system: asialo-ovine submaxillary mucin; assay: pH dependence of amaranthin/asialo-ovine submaxillary mucin precipitation; assay type: binding; conditions: 80 μg amaranthin, 5 μg asialo-ovine submaxillary mucin, universal buffer
Method: The pH dependence study utilized a 2-fold concentrate of a universal buffer system consisting of sodium citrate (24.6 mM), KH2 PO4 (28.7 mM) sodium barbitol (29.1 mM), boric acid (28.8 mM), and NaCl (209 mM), and was adjusted to the indicated pH values with 0.2 N NaOH or 0.2 N HCl. Water was added to complete the 2-fold dilution and the pH was recorded. Amaranthin and asialo-ovine submaxillary mucin solutions were prepared as concentrated solutions in 0.9% NaCI. A standard precipitation assay with amaranthin (80μg) and asialo-ovine submaxillary mucin (5 μg) was carried out using the universal buffer at the indicated pH.

[2] = system: adenomatous colonic polyps; assay: Lectin histochemistry, adenomatous colonic polyps; assay type: binding, human; conditions: glands in adenomatous polyps; mean ± SEM; listed as ACA
Text: Specimens of adenocarcinoma of the colon and adenomatious colonic polyps from resected specimens were obtained from the Pathology Service at the Ann Arbor Veterans Administration Medical Center. These specimens were obtained at surgery or at colonoscopic polypectomy, fixed in buffered formalin, and embedded in paraffin for routine pathological examination. Additional four micron sections were cut for lectin histochemistry after the pathological diagnosis was confirmed.
(§1) Four micron paraffin embedded tissue sections attached to glass slides were deparaffinized by serial incubations in xylene (twice), absolute ethanol (thrice), 95% ethanol, 70% ethanol, water and finally equilibrated in phosphate buffered saline (PBS), pH 7.0, containing 0.1% bovine serum albumin (BSA) commercially available from Sigma Corp of St. Louis, Mo. The slides were blotted dry adjacent to the tissue sections, and biotinylated lectin was added at a concentration of 10 μg/ml (for ACA) and 20 μg/ml (for PNA) in a quantity sufficient to completely cover the hydrated tissue (100-2001 μl). The lectin was rinsed off after a 30 minute incubation by eight 2-second dips into phosphate buffered saline. The slides were again blotted, and the tissue covered with Streptavidin-horseradish peroxidase (HRP) obtained from Zymed Laboratories, San Francisco, Calif. at a concentration of 10 μg/ml for 30 minutes. […]

hog lymphocytes = conditions: cited from earlier work
HNPCC tissues = assay: Lectin histochemistry, HNPCC rectal biopsies; assay type: binding, human; design: key to Staining (global score 0-3+): 4^+: Maximum labeling of the brown reaction product; 0: No staining of the slide compared to control sections; 1^+: trace or weak staining definitely not seen on control slides; 2+3^+: stronger staining, but definitely less than maximal; conditions: listed as ACA; for Weighted Average (0-400): mean ± SEM
Text: Rectal biopsies were obtained from individuals who were first degree relatives of patients with hereditary nonpolyposis colorectal cancer (HNPCC) as identified by H. T. Lynch, M.D. These patients were the siblings or offspring of index patients who fit the criteria for Lynch Syndrome I or II. See Drzeniek, Z., and Usowska, E. (1979) Arch. Immunol Ther. Exp. 27, 253-262. However, since there is no definitive genetic or phenotypic marker for this familial syndrome, it is not possible to be certain that these patients represent a single homogenous genetic abnormality. The biopsies were fixed in formalin, and embedded in paraffin for tissue sectioning.
as §1, with “minutes. The slides were rinsed as mentioned above, and the pigmented reaction product developed by the addition of a freshly prepared chromogen reagent solution prepared within two hours of use as follows.” for “minutes.”
(§2) Therefore, each individual crypt of Lieberkuhn was given a score from 0-4^+, and the labeling was expressed as a "weighted average", or, the sum of scores from 100 crypts, which could range from 0 (all crypts not labeled) to 400 (all 100 crypts maximally labeled). […]

FAP colonic tissue = assay: Lectin histochemistry, familial adenomatous polyposis (FAP) colonic tissue; assay type: binding, human
Text: Full thickness specimens of colonic tissue were obtained from colectomy specimens for familial adenomatous polyposis at Johns Hopkins Hospital, fixed in formalin, and embedded in paraffin for tissue sectioning. The tissue specimens contained normal-appearing flat mucosa familial adenomatous polyposis, or FAP-normal, as well as a polypoid, adenomatious tissue familial adenomatous polyposis, or FAP-abnormal.
Four micron paraffin embedded tissue sections attached to glass slides were deparaffinized by serial incubations in xylene (twice), absolute ethanol (thrice), 95% ethanol, 70% ethanol, water and finally equilibrated in phosphate buffered saline (PBS), pH 7.0, containing 0.1% bovine serum albumin (BSA) commercially available from Sigma Corp of St. Louis, Mo. The slides were blotted dry adjacent to the tissue sections, and biotinylated lectin was added at a concentration of 10 μg/ml (for ACA) and 20 μg/ml (for PNA) in a quantity sufficient to completely cover the hydrated tissue (100-2001 μl). The lectin was rinsed off after a 30 minute incubation by eight 2-second dips into phosphate buffered saline. The slides were again blotted, and the tissue covered with Streptavidin-horseradish peroxidase (HRP) obtained from Zymed Laboratories, San Francisco, Calif. at a concentration of 10 μg/ml for 30 minutes. The slides were rinsed as mentioned above, and the pigmented reaction product developed by the addition of a freshly prepared chromogen reagent solution prepared within two hours of use as follows.
3,3'-diaminobenzidine was aliqotted at 5 mg/mL in 0.01 M (Tris) tris hydroxy methyl amino methane saline, pH 7.5 and frozen at -70° C. until use. For use, the aliquot was thawed, diluted 1:10 in 0.01 M (Tris) tris hydroxy methyl amino methane saline pH 7.5, and 3.3 μL of 30% H2 O2 were added to each 5 ml. This solution was allowed to stand for 10 min, and 100-200 μl was applied to the tissue sections that had been incubated earlier with biotinylated lectin and Streptavidin-HRP. After 10 min, the slides were rinsed with albumin-free phosphate buffered saline. […]
A second method for scoring tissues was used to survey normal colonic tissues, adenomatous polyps, and cancers. For these studies, individual epithelial "units" were counted as either positive or negative; i.e., each crypt of Lieberkuhn or neoplastic gland was considered an independent scorable unit, and the tissue score was expressed in terms of the percentage of units with any degree of definite labeling as from 1^+ to 4^+. […]
as §2

Substance: amaranthin
- Effect of Newcastle disease virus neuraminidase on labeling (colonic adenocarcinoma; cancer specimens): Neither sialidase enhanced labeling
- Effect of V. Cholerae neuraminidase on labeling (colonic adenocarcinoma; cancer specimens): Neither sialidase enhanced labeling
- Percent of Epithelial Units Labeled (colonic adenocarcinoma; malignant glands, mean ± SEM, listed as ACA): 97±2% and 97%±2%
- Labeling of transitional mucosa (colonic adenocarcinoma; mucosa adjacent to colonic cancer, upper and lower crypt region): 1^+
- pH at or below which almost no precipitate formed [1]: ≤ 3 pH
- pH of peak precipitation activity [1]: 5 pH
- pH range of significant amaranthin activity [1]: 4-9 pH
- Percent of Epithelial Units Labeled [2]: 82±7% and 82%±7% and 82 + 7%
- mitogenicity, in words (hog lymphocytes): non-mitogenic
- Weighted Average (0-400) (HNPCC tissues; HNPCC outliers): 203±43
- Weighted Average (0-400) (HNPCC tissues; HNPCC): 74±70
- Staining (global score 0-3+) (HNPCC tissues; biotinylated ACA 10 μg/mL or PNA 20 μg/mL): 1^+
- Weighted Average (0-400) (FAP colonic tissue; FAP, mean ± SEM, listed as ACA): 224±76
- Percent of epithelial glands with bound lectin (FAP colonic tissue; all 28 specimens, mean): 67±6%
- Percent of Epithelial Units Labeled (FAP colonic tissue; flat tissue, mean ± SEM, listed as ACA): 60±7% and 60%±7%
- Percent of Epithelial Units Labeled (FAP colonic tissue; polypoid tissue, mean ± SEM, listed as ACA): 83±7% and 83%±7%
